Data published in PubChem BioAssay (NCI).
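Growth conditions: 96-well plates. Treatment: test compound, 48 hours, 5 concentrations. Analysis: linear interpolation between bracketing concentrations; unreached endpoints set to highest concentration. Definition used: TGI = concentration required for complete inhibition of growth.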

How the values were obtained:
Assay in all cases: NCI anticancer screen, dose series, 48 h
[1] = tested on: HL-60(TB) leukemia
[2] = tested on: NCI-H460 lung
[3] = tested on: OVCAR-8 ovarian
[4] = tested on: SF-295 CNS
[5] = tested on: SK-MEL-2 melanoma
[6] = tested on: SK-MEL-28 melanoma
[7] = tested on: SK-MEL-5 melanoma
[8] = tested on: SNB-19 CNS
[9] = tested on: SR leukemia
[10] = tested on: TK-10 renal

SMILES | TGI [1] [µM] | TGI [2] [µM] | TGI [3] [µM] | TGI [4] [µM] | TGI [5] [µM] | TGI [6] [µM] | TGI [7] [µM] | TGI [8] [µM] | TGI [9] [µM] | TGI [10] [µM]
COc1cc2c3c(n(C)c(=O)c2cc1OC)-c1cc2c(cc1/C3=C\CCCI)OCO2 | > 100 | > 100 | > 100 | > 41.6 | > 100 | > 100 | > 100 | > 100 | 23.2 | > 85.6
CC(C)(C)OC(=O)CN1CCNCCN(CC(=O)OC(C)(C)C)CCNCC1 | > 100 | > 100 | > 100 | > 100 | > 100 | > 100 | > 100 | > 100 | > 100 | > 100
C=C1CC(Cn2ccc(=O)[nH]c2=O)(c2ccc(Cl)cc2)OC1=O (stereo not given) | > 100 | 26.1 | 24.5 | 38.6 | 22.5 | 13.7 | 10.8 | > 71.1 | 11.7 | 4.72
O=C1CC(c2ccccc2)=Nc2ccccc2N1 | > 100 | > 100 | > 100 | > 100 | > 100 | > 100 | > 100 | > 100 | > 100 | > 100
C[C@@H]1C(=O)C[C@H]2C(C)(C)CCC[C@]2(C)[C@@]1(O)CCc1ccoc1 | > 100 | > 100 | > 100 | > 100 | > 100 | > 100 | > 100 | > 100 | > 100 | > 100
Cn1ncc2c(Cl)ncnc21 | > 100 | > 100 | > 100 | > 100 | > 100 | > 100 | > 100 | > 100 | > 100 | > 100
Clc1cccc(NN=Nc2ccc(-c3nc4ccccc4s3)cc2)c1 | 27.2 | > 100 | 45.9 | > 100 | 48.1 | > 100 | 74.9 | > 100 | 43 | > 100
